In the supplement of paper PMC11061612:

How the values were obtained:
[1] = compound: NC1(c2ccc(-c3nc4ccn5c(=O)[nH]nc5c4cc3-c3ccccc3)cc2)CCC1 [MK-2206]; conditions: max 10 µM
Method in brief: (§1)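 Viability was measured with CellTiter-Glo 2.0 luminescence after 72 hours of dosing at a final DMSO of typically 0.2%, and scaled between blank-well and DMSO-well means. Beforehand, cancer cell lines sat 24 hours at 37°C and 5% CO2 in 1536-well plates in 7.5 μl DMEM/F12 or RPMI with 10% FBS. A non-linear mixed effects model fitted two-parameter logistic curves to the dose responses. The single-agent IC50 comes from these fits.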

[2] = compound: CCN(CCO)CCCOc1ccc2c(Nc3cc(CC(=O)Nc4cccc(F)c4)[nH]n3)ncnc2c1 [AZD2811]; conditions: max 1 µM
Method in brief: as §1

[3] = compound: Cc1c2c(nn1C)CSCc1cc(n(C)n1)CSc1cc(c3ccccc3c1)OCCCc1c(C(=O)O)n(C)c3c-2c(Cl)ccc13 [AZD5991]; conditions: max 1 µM
Method in brief: as §1

[4] = compound: COc1cc2ncnc(Nc3ccc(F)c(Cl)c3)c2cc1OCCCN1CCOCC1 [Gefitinib]; conditions: max 10 µM
Method in brief: as §1

[5] = compound: COc1nnc2ccc(N3CCC(c4ccc(OCCN5CCN(C)C(=O)[C@H]5C)cc4)CC3)nn12 [AZD5153]; conditions: max 1 µM
Method in brief: as §1

[6] = compound: CCc1c2c(nc3ccc(O)cc13)-c1cc3c(c(=O)n1C2)COC(=O)[C@]3(O)CC [SN-38]; conditions: max 0.3 µM
Method in brief: as §1

[7] = compound: CS(=O)(=O)CCNCc1ccc(-c2ccc3ncnc(Nc4ccc(OCc5cccc(F)c5)c(Cl)c4)c3c2)o1 [Lapatinib]; conditions: max 10 µM
Method in brief: as §1

[8] = compound: COc1cccc(OCCCN)c1-c1cc(Nc2cnc(C#N)cn2)n[nH]1 [Prexasertib]; conditions: max 1 µM
Method in brief: as §1

[9] = compound: COc1cccc2c1C(=O)c1c(O)c3c(c(O)c1C2=O)C[C@@](O)(C(=O)CO)C[C@@H]3O[C@H]1C[C@H](N)[C@H](O)[C@H](C)O1 [Doxorubicin]; conditions: max 1 µM
Method in brief: as §1

[10] = compound: Cc1cc2ncnn2cc1Nc1ncc2c(n1)n(C1CCOCC1)c(=O)n2C [AZD7648]; conditions: max 10 µM
Method in brief: as §1

[11] = compound: CC1(C)CCC(CN2CCN(c3ccc(C(=O)NS(=O)(=O)c4ccc(NCC5CCOCC5)c([N+](=O)[O-])c4)c(Oc4cnc5[nH]ccc5c4)c3)CC2)=C(c2ccc(Cl)cc2)C1 [Venetoclax]; conditions: max 1 µM
Method in brief: as §1

[12] = compound: CC1=C(C(=CC=C1)Cl)NC(=O)C2=CN=C(S2)NC3=CC(=NC(=N3)C)N4CCN(CC4)CCO [Dasatinib]; conditions: max 2 µM
Method in brief: as §1

[13] = compound: C[C@@H](Oc1cc(-c2cnn(C3CCNCC3)c2)cnc1N)c1c(Cl)ccc(F)c1Cl [Crizotinib]; conditions: max 10 µM
Method in brief: as §1

[14] = compound: C1CN(CCC1(C(=O)N[C@@H](CCO)C2=CC=C(C=C2)Cl)N)C3=NC=NC4=C3C=CN4 [Capivasertib]; conditions: max 10 µM
Method in brief: as §1

[15] = compound: C[C@@H]1COCCN1C2=NC(=NC(=C2)C3(CC3)[S@](=N)(=O)C)C4=C5C=CNC5=NC=C4 [AZD6738]; conditions: max 10 µM
Method in brief: as §1

[16] = compound: Cc1nc(-c2cn3c(n2)-c2ccc(-c4cnn(C(C)(C)C(N)=O)c4)cc2OCC3)n(C(C)C)n1 [Taselisib]; conditions: max 10 µM
Method in brief: as §1

[17] = compound: CN(CC[C@H](CSC1=CC=CC=C1)NC2=C(C=C(C=C2)S(=O)(=O)NC(=O)C3=CC=C(C=C3)N4CCC(CC4)[C@H](C5=CC=CC=C5C6=CC=C(C=C6)Cl)O)S(=O)(=O)C(F)(F)F)CCO [AZD4320]; conditions: max 1 µM
Method in brief: as §1

[18] = compound: CN(C)CCCOc1ccc(-c2ccc3ncc4c(c3c2)n(C2CCOCC2)c(=O)n4C)cn1 [AZD0156]; conditions: max 3 µM
Method in brief: as §1

[19] = compound: C[C@@H](c1ccc2nccn2c1)n1nnc2ncc(-c3cnn(C)c3)nc21 [Savolitinib]; conditions: max 1 µM
Method in brief: as §1

[20] = compound: Cn1cnc2c(F)c(Nc3ccc(Br)cc3Cl)c(C(=O)NOCCO)cc21 [Selumetinib]; conditions: max 10 µM
Method in brief: as §1

[21] = compound: COc1cc(Nc2ncc3c(n2)-c2ccc(Cl)cc2C(c2c(F)cccc2OC)=NC3)ccc1C(=O)O [Alisertib]; conditions: max 10 µM
Method in brief: as §1

[22] = compound: CC1=CN2[C@@H](C1)C=NC3=CC(=C(C=C3C2=O)OC)OCCCCCOC4=C(C=C5C(=C4)N=C[C@@H]6CC(=CN6C5=O)C)OC [SG3199]; conditions: max 0.001 µM
Method in brief: as §1

[23] = compound: CC(C)n1c(=O)n(C)c2cnc3cc(F)c(-c4ccc(OCCCN5CCCCC5)nc4)cc3c21 [AZD1390]; conditions: max 0.3 µM
Method in brief: as §1

[24] = compound: CC(=O)Nc1cccc(-n2c(=O)n(C3CC3)c(=O)c3c(Nc4ccc(I)cc4F)n(C)c(=O)c(C)c32)c1 [Trametinib]; conditions: max 1 µM
Method in brief: as §1

[25] = compound: CC(=O)c1c(C)c2cnc(Nc3ccc(N4CCNCC4)cn3)nc2n(C2CCCC2)c1=O [Palbociclib]; conditions: max 10 µM
Method in brief: as §1

[26] = compound: C[C@@H](Nc1cc(F)cc(F)c1)c1cc(C(=O)N(C)C)cc2c(=O)cc(N3CCOCC3)oc12 [AZD8186]; conditions: max 3 µM
Method in brief: as §1

[27] = compound: C=CCn1c(=O)c2cnc(Nc3ccc(N4CCN(C)CC4)cc3)nc2n1-c1cccc(C(C)(C)O)n1 [AZD1775]; conditions: max 3 µM
Method in brief: as §1

[28] = compound: O=C(c1cc(Cc2n[nH]c(=O)c3ccccc23)ccc1F)N1CCN(C(=O)C2CC2)CC1 [Olaparib]; conditions: max 10 µM
Method in brief: as §1

For NCI-H513 (Other Solid Carcinomas), the “IC50, cell viability 72 h” value [1] was > 10 µM, the “IC50, cell viability 72 h” value [2] was > 1000 nM and the “IC50, cell viability 72 h” value [3] was > 1000 nM. For the same cell line, the “IC50, cell viability 72 h” value [4] was > 10 µM, the “IC50, cell viability 72 h” value [5] was > 1000 nM and the “IC50, cell viability 72 h” value [6] was 210 nM. For the same cell line, the “IC50, cell viability 72 h” value [7] was > 10 µM, the “IC50, cell viability 72 h” value [8] was > 1000 nM and the “IC50, cell viability 72 h” value [9] was > 1000 nM. For the same cell line, the “IC50, cell viability 72 h” value [10] was > 10 µM, the “IC50, cell viability 72 h” value [11] was > 1000 nM and the “IC50, cell viability 72 h” value [12] was > 2000 nM. For the same cell line, the “IC50, cell viability 72 h” value [13] was > 10 µM, the “IC50, cell viability 72 h” value [14] was > 10 µM and the “IC50, cell viability 72 h” value [15] was > 10 µM. The “IC50, cell viability 72 h” value [16] was > 10 µM, the “IC50, cell viability 72 h” value [17] was > 1000 nM and the “IC50, cell viability 72 h” value [18] was > 3000 nM. The “IC50, cell viability 72 h” value [19] was > 1000 nM, the “IC50, cell viability 72 h” value [20] was > 10 µM and the “IC50, cell viability 72 h” value [21] was > 10 µM. For the same cell line, the “IC50, cell viability 72 h” value [22] was > 1 nM, the “IC50, cell viability 72 h” value [23] was > 300 nM and the “IC50, cell viability 72 h” value [24] was 643 nM. For the same cell line, the “IC50, cell viability 72 h” value [25] was > 10 µM, the “IC50, cell viability 72 h” value [26] was > 3000 nM and the “IC50, cell viability 72 h” value [27] was > 3000 nM. For the same cell line, the “IC50, cell viability 72 h” value [28] was > 10 µM.
